Results reported in patent publication US20080261994A1, “CYCLOPROPANE COMPOUNDS AND PHARMACEUTICAL USE THEREOF” (Japan Tobacco Inc., priority 2003, published 2008).
Where two headings read alike, the source gives them in different places.

Legend:
Assay type in all cases: biochemical
MMP-1 = target: T1, MMP-1 (Homo sapiens, UniProt P03956); test: MMP-1 inhibitory action (Type I collagen Activity Measurement kit, FITC-labeled collagen type I)
T1 sequence (P03956 100-469): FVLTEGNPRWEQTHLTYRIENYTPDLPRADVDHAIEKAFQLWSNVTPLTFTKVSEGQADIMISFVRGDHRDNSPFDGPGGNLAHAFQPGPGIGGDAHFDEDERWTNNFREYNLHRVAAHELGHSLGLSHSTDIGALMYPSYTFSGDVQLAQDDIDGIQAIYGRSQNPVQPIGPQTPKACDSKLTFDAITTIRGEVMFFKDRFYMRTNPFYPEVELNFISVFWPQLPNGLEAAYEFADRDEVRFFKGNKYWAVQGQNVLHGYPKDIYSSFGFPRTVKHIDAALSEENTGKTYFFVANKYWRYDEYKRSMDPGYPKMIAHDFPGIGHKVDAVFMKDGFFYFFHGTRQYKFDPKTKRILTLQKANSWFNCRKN

Recombinant Human MMP-13 = target: T2, Recombinant Human MMP-13 (Homo sapiens, UniProt P45452); test: MMP-13 inhibitory activity (MMP-13 specific fluorescent substrate with quencher)
T2 construct: purchased R&D systems 511-MM
How it was run: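 Recombinant human MMP-13 with test compound, reaction started with quenched fluorogenic peptide 7-MCA-Pro-CHA-Gly-NVal-His-Ala-DPA in Tris-HCl buffer, 1 h at 25 °C, stopped with acetic acid. Fluorescence at Ex 325/Em 405 nm; % inhibition versus enzyme-free and inhibitor-free wells, reported as IC50 (μM).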

aggrecanase-1 = target: T3, aggrecanase-1 (Homo sapiens, UniProt O75173); test: Aggrecanase-1 inhibitory action (Particle Assay, GAG release from aggrecan-containing polyacrylamide particles)
T3 sequence (O75173 213-837): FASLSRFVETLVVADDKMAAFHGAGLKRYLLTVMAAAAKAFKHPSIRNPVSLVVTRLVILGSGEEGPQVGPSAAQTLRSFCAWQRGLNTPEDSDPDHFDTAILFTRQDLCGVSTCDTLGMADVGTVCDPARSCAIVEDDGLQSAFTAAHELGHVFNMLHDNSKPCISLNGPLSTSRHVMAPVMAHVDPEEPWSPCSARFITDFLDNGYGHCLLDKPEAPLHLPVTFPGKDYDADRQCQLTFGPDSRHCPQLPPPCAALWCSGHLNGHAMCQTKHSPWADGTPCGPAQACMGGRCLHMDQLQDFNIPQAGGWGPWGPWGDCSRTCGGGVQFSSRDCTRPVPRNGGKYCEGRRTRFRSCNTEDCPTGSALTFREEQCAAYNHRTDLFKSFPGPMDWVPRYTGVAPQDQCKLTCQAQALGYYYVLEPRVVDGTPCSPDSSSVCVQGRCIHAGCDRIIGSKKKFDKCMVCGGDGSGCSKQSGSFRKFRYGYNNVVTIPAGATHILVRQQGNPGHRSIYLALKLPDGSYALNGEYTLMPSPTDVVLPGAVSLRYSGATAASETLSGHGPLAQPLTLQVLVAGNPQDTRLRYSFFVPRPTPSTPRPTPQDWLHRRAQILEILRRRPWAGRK
How it was run: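 Enzyme and compound incubated with aggrecan-containing polyacrylamide particles in Tris-HCl buffer at 37° C for 15 h. Released GAG in supernatant measured with 1,9-dimethylmethylene blue at 595 nm against chondroitin sulfate standard; % inhibition from enzyme-free and inhibitor-free wells, reported as TC50 (μM).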

[1] = MMP-1 inhibitory action, FITC-labeled collagen type I, 37° C. for 3 hr, read-out: IC50 MMP1 (Experimental Example 2)
[2] = Recombinant Human MMP-13, fluorescent substrate, 25° C. for 1 h, read-out: IC50 MMP13 (Experimental Example 3)
[3] = aggrecanase-1 inhibitory action, read-out: IC50 AG1 (Experimental Example 1)
[4] = Experimental Example 2, read-out: IC50 MMP1
[5] = Experimental Example 3, read-out: IC50 MMP13
[6] = Experimental Example 1, read-out: IC50 AG1

| SMILES | IC50 (MMP-1; [1]) | IC50 (Recombinant Human MMP-13; [2]) | IC50 (aggrecanase-1; [3]) | IC50 (MMP-1; [4]) | IC50 (Recombinant Human MMP-13; [5]) | IC50 (aggrecanase-1; [6]) |
| --- | --- | --- | --- | --- | --- | --- |
| O=C(O)C1(NS(=O)(=O)c2ccc(-c3cc(C(F)(F)F)on3)s2)CC1c1cccc(N2CCOCC2)c1 (stereo not drawn) [Example 2-257] | ≥ 1000 nM | < 1000 nM | < 100 nM |  |  |  |
| CN1CCN(CCOc2cccc(C3CC3(NS(=O)(=O)c3ccc(-c4ccc(Cl)cc4)s3)C(=O)O)c2)CC1 (stereo not drawn) [Example 2-198] | ≥ 10000 nM | < 1000 nM | < 1000 nM |  |  |  |
| O=C(c1ccc(Cl)cc1)c1ccc(S(=O)(=O)N[C@@]2(C(=O)O)C[C@@H]2c2ccccc2)s1 [Example 2-307] |  |  |  | ≥ 10000 nM | ≥ 1000 nM | ≥ 1000 nM |
| O=C(O)C1(NS(=O)(=O)c2ccc(-c3ccc(Cl)cc3)s2)CC1c1ccc(Br)cc1 (stereo not drawn) [Example 2-203] | ≥ 10000 nM | < 100 nM | < 1000 nM |  |  |  |
| NCc1ccc(C2CC2(NS(=O)(=O)c2ccc(-c3ccc(Cl)cc3)s2)C(=O)O)cc1 (stereo not drawn) [Example 2-265] | ≥ 10000 nM | < 1000 nM | < 1000 nM |  |  |  |
| CC(F)(F)c1cc(-c2ccc(S(=O)(=O)N[C@@]3(C(=O)O)C[C@]3(C)c3ccccc3)s2)no1 [Example 2-107] | < 1000 nM | < 100 nM | < 100 nM |  |  |  |
| O=C(O)C1(NS(=O)(=O)c2ccc(-c3ccc(Cl)cc3)s2)CC1(Cn1ccnc1)c1ccccc1 (stereo not drawn) [Example 2-346] |  |  |  | ≥ 10000 nM | < 1000 nM | < 1000 nM |
| CC1[C@H](c2ccccc2)[C@]1(NS(=O)(=O)c1ccc(-c2cc3ccccc3[nH]2)s1)C(=O)O (stereo partly drawn) [Example 2-493] |  |  |  | < 1000 nM | < 100 nM | < 100 nM |
| NCc1ccc([C@@H]2C[C@]2(NS(=O)(=O)c2ccc(-c3cc(C(F)(F)F)on3)s2)C(=O)O)cc1 [Example 2-289] |  |  |  | ≥ 1000 nM | < 1000 nM | < 1000 nM |
| O=C(O)[C@]1(NS(=O)(=O)c2ccc(-n3cc(Cl)cn3)nc2)C[C@@H]1c1ccccc1 [Example 2-554] |  |  |  | ≥ 1000 nM | < 1000 nM | ≥ 1000 nM |
| O=C(O)C1(NS(=O)(=O)c2ccc(-c3ccc(Cl)cc3)cc2)CC1c1cccc(OCCN2CCOCC2)c1 (stereo not drawn) [Example 1-74] | ≥ 1000 nM | < 100 nM | < 1000 nM |  |  |  |
| CN(C)C(=O)NCC1(c2ccccc2)CC1(NS(=O)(=O)c1ccc(-c2ccc(Cl)cc2)s1)C(=O)O (stereo not drawn) [Example 2-378] |  |  |  | ≥ 1000 nM | < 1000 nM | < 1000 nM |
| CC1[C@H](c2ccccc2)[C@]1(NS(=O)(=O)c1ccc(-n2cc(Cl)cn2)s1)C(=O)O (stereo partly drawn) [Example 2-444] |  |  |  | < 1000 nM | < 100 nM | < 100 nM |
| CC1[C@H](c2ccccc2)[C@]1(NS(=O)(=O)c1ccc(-n2cc(S(C)(=O)=O)cn2)s1)C(=O)O (stereo partly drawn) [Example 2-524] |  |  |  | < 100 nM | < 100 nM | < 100 nM |
| O=C(O)[C@]1(NS(=O)(=O)/C=C/c2ccc(C(F)(F)F)cc2)C[C@@H]1c1ccccc1 [Example 2-161] | ≥ 10000 nM | ≥ 1000 nM | ≥ 10000 nM |  |  |  |
| O=C(Cc1cccc(C2CC2(NS(=O)(=O)c2ccc(-c3cc(C(F)(F)F)on3)s2)C(=O)O)c1)N[C@H]1CC[C@H](O)CC1 (stereo partly drawn) [Example 2-233] | ≥ 1000 nM | < 100 nM | < 1000 nM |  |  |  |
| CC(C)NC(=O)c1ccc(S(=O)(=O)NC2(C(=O)O)CC2c2ccccc2)s1 (stereo not drawn) [Example 2-94] | ≥ 10000 nM | ≥ 10000 nM | ≥ 10000 nM |  |  |  |

| SMILES | IC50 (MMP-1; [1]) | IC50 (Recombinant Human MMP-13; [2]) | IC50 (aggrecanase-1; [3]) | IC50 (MMP-1; [4]) | IC50 (Recombinant Human MMP-13; [5]) | IC50 (aggrecanase-1; [6]) |
| --- | --- | --- | --- | --- | --- | --- |
| O=C(O)c1cccc([C@H]2C[C@@]2(NS(=O)(=O)c2ccc(-c3ccc(Cl)cc3)s2)C(=O)O)c1 [Example 2-175] | ≥ 1000 nM | < 1000 nM | < 100 nM |  |  |  |
| Cc1cnn(-c2ccc(S(=O)(=O)N[C@@]3(C(=O)O)C[C@@H]3c3ccccc3)s2)c1 [Example 2-241] | ≥ 1000 nM | < 100 nM | < 1000 nM |  |  |  |
| O=C1CCCCN1c1ccc(S(=O)(=O)N[C@@]2(C(=O)O)C[C@@H]2c2ccccc2)s1 [Example 2-164] | ≥ 10000 nM | ≥ 10000 nM | ≥ 10000 nM |  |  |  |
| O=C(O)C1(NS(=O)(=O)N2CCN(c3ccc(C(F)(F)F)cn3)CC2)CC1c1ccccc1 (stereo not drawn) [Example 2-68] | ≥ 10000 nM | < 100 nM | ≥ 1000 nM |  |  |  |
| CC1[C@H](c2ccccc2)[C@]1(NS(=O)(=O)N1Cc2ccc(Br)cc2C1)C(=O)O (stereo partly drawn) [Example 2-505] |  |  |  | ≥ 1000 nM | < 1000 nM | ≥ 1000 nM |
| CN1CCN(C(=O)CCc2cccc(C3CC3(NS(=O)(=O)c3ccc(-c4cc(C(F)(F)F)on4)s3)C(=O)O)c2)CC1 (stereo not drawn) [Example 2-235] | ≥ 1000 nM | < 100 nM | < 1000 nM |  |  |  |
| CC1[C@H](c2ccccc2)[C@]1(NS(=O)(=O)N1CCN(C(=O)OCc2ccccc2)CC1)C(=O)O (stereo partly drawn) [Example 2-532] |  |  |  | ≥ 1000 nM | ≥ 1000 nM | ≥ 1000 nM |
| C[C@]1(c2ccccc2)C[C@@]1(NS(=O)(=O)c1ccc(-c2cc(C(F)F)no2)s1)C(=O)O [Example 2-422] |  |  |  | < 1000 nM | < 1000 nM | < 100 nM |
| CC1C(c2ccccc2)C1(NS(=O)(=O)c1ccc(-c2cccc(CO)c2)s1)C(=O)O (stereo not drawn) [Example 2-525] |  |  |  | < 100 nM | < 100 nM | < 100 nM |
| O=C(O)C1(NS(=O)(=O)c2ccc(-c3ccc(Cl)cc3)s2)CC1c1cccc(Oc2cccnc2)c1 (stereo not drawn) [Example 1-88] | ≥ 10000 nM | < 1000 nM | < 100 nM |  |  |  |
| O=C(O)C1(NS(=O)(=O)c2ccc(-c3ccc(Cl)cc3)s2)CC1c1ccccc1 (stereo not drawn) [Example 1-69] | ≥ 10000 nM | < 1000 nM | < 100 nM |  |  |  |
| CN1CCN(C(=O)CCc2cccc(C3CC3(NS(=O)(=O)c3ccc(-c4ccc(Cl)cc4)s3)C(=O)O)c2)CC1 (stereo not drawn) [Example 2-210] | ≥ 10000 nM | < 100 nM | < 1000 nM |  |  |  |
| O=C(O)C1(NS(=O)(=O)c2ccc(-c3cc(C(F)(F)F)on3)s2)CC1(CCCO)c1ccccc1 (stereo not drawn) [Example 2-248] | ≥ 1000 nM | < 1000 nM | < 100 nM |  |  |  |
| CN(C)C(=O)OCC1(c2ccccc2)CC1(NS(=O)(=O)c1ccc(-c2cc(C(F)(F)F)on2)s1)C(=O)O (stereo not drawn) [Example 2-320] |  |  |  | ≥ 1000 nM | < 1000 nM | < 1000 nM |
| COCCOCC1(c2ccccc2)CC1(NS(=O)(=O)c1ccc(-c2ccc(Cl)cc2)s1)C(=O)O (stereo not drawn) [Example 2-429] |  |  |  | ≥ 1000 nM | < 1000 nM | < 1000 nM |
| C[C@]1(c2cccc(Cl)c2)C[C@@]1(NS(=O)(=O)c1ccc(-c2cc(C(F)(F)F)on2)s1)C(=O)O [Example 2-619] |  |  |  | < 1000 nM | < 1000 nM | < 100 nM |
